Measurements published in PubChem BioAssay (NCI).
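Results reflect a 48-hour exposure of cells in 96-well plates to compound at five concentrations. GI50: concentration for 50% inhibition of growth. At the TGI there is no net growth.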

What was measured:
Experiment in all cases: NCI-60 cell line screen, 48 h
CCRF-CEM leukemia = tested on: CCRF-CEM leukemia
NCI-H460 lung = tested on: NCI-H460 lung
IGROV1 ovarian = tested on: IGROV1 ovarian
DU-145 prostate = tested on: DU-145 prostate
TK-10 renal = tested on: TK-10 renal
MDA-MB-435 = tested on: MDA-MB-435
NCI-H522 lung = tested on: NCI-H522 lung
EKVX NSCLC = tested on: EKVX NSCLC
T-47D breast = tested on: T-47D breast
RXF 393 renal = tested on: RXF 393 renal

SMILES	TGI (CCRF-CEM leukemia) [µM]	TGI (NCI-H460 lung) [µM]	TGI (IGROV1 ovarian) [µM]	TGI (DU-145 prostate) [µM]	TGI (TK-10 renal) [µM]	TGI (MDA-MB-435) [µM]	TGI (NCI-H522 lung) [µM]	TGI (EKVX NSCLC) [µM]	TGI (T-47D breast) [µM]	TGI (RXF 393 renal) [µM]	GI50 (NCI-H460 lung) [µM]	GI50 (IGROV1 ovarian) [µM]	GI50 (DU-145 prostate) [µM]	GI50 (TK-10 renal) [µM]	GI50 (MDA-MB-435) [µM]	GI50 (T-47D breast) [µM]	GI50 (NCI-H522 lung) [µM]	GI50 (EKVX NSCLC) [µM]
O=C(CNc1ccc(Cl)cc1Cl)NC1C=Cc2ccc(S(=O)(=O)Nc3ccc(Cl)cc3Cl)cc2C1=O (centres undefined)	> 100	> 100	> 100	> 100	> 100	> 100	> 100	> 100										
C=CC[C@@]1(C(=O)OC)[C@H](Sc2ccccc2)C1(C)C	> 100	> 100	> 100	> 100	> 100	> 100	87.9	> 100	> 100									
O=c1[nH]nc(Cc2ccccc2)n1-n1cnnc1	> 100		> 100	> 100	> 100	> 100	> 100	> 100		> 100								
COc1ccc(/C=C2\N=C(c3ccccc3)N(C3Nc4cc5c(cc4S3)NC(N3C(=O)/C(=C/c4ccc(OC)cc4)N=C3c3ccccc3)S5)C2=O)cc1 (centres undefined)		> 100	> 100	> 100	> 100	> 100	45.2	99.5	> 100	> 100								
CC(=O)O[C@H]1C(=O)[C@@]2(C)[C@H]([C@H](OC(=O)c3ccccc3)[C@]3(O)C[C@H](OC(=O)[C@H](O)[C@@H](NC(=O)CC(C)(C)C)c4ccccc4)C(C)=C1C3(C)C)C1(OC(C)=O)CO[C@@H]1C[C@@H]2O (some centres undefined)	> 10	> 10	> 10	0.0833	> 10			> 10	> 10	0.148								
O=C1c2cccc3cccc(c23)C(=O)N1CCCNOCCONCCCN1C(=O)c2cccc3cccc(c23)C1=O	91.6	> 100	> 100	> 100	> 100	> 100		> 100		> 100								
C#CCn1c(=O)c(C#N)c(O)c2cc3ccccc3nc21	> 100	> 100	> 100				> 100	> 100		> 100								
CSC1=NS(=O)(=O)c2cc(C(=O)NN(C)C(=O)c3cc4c(cc3Cl)SC(SC)=NS4(=O)=O)c(Cl)cc2S1	> 10	> 10	> 10	> 10	> 10		> 10	> 10	> 10	> 10								
COc1c(C)c(OC)c2c(c1O)[C@@H]1[C@@H]3Cc4c(OC)c(C)c(OC)c(O)c4[C@H](CNC(=O)c4cnc5ccccc5n4)N3[C@@H](C#N)[C@H](C2)N1C	0.0054	> 0.1		> 0.0206	0.0248	0.00622	0.00516	> 0.00703	0.00676	> 0.0368								
CC(=O)c1cc2c(s1)C(=O)c1ccccc1C2=O		> 33.4	5.5	12	42.3	2.21	3.5	15.9	20.6	28								
COc1cc(S(=O)(=O)Nc2ccc(C3=NNC(c4ccccc4)C3)cc2)ccc1F (centres undefined)		> 100	> 100	> 100	54.7	> 100	> 100	> 100	> 100		32.3	93.8	76.1	13.9	47.2	54.2	38	17.8
CN(C)CCCOCCn1c2c(c3ccccc31)CCCC2	30	28.9	34	67.7	32.6	34.2		57.8	49.7									
CCOC(=O)C(/C=N\C(=S)Nc1ccc(OCC)cc1)=C(/O)c1ccccc1	> 100	> 100	> 100	> 100		> 100	> 100	> 100	> 100	> 100								
Cc1ccc(N=Nc2c(C)c(C#N)c(=S)n(C3OC(CO)C(O)C(O)C3O)c2-c2ccccc2)cc1 (centres undefined)	48.1	> 100	> 100	> 100	67.6	43.8			57.2	50.6								
O=C(NCc1ccc(Cl)cc1)c1cc2sccc2nc1C(F)(F)F	> 100		> 100		> 100	> 100	95.2	> 100	> 100	67.4								
C[C@]12CC[C@@H]3c4ccc(OC(=O)c5ccccc5)cc4CC[C@H]3[C@@H]1CC[C@@H]2Oc1c2ccccc2nc2ccccc12	21.2	17.1	42.4	20.3	> 50	12.9	46	8.96		15.8								
Oc1ccc(CCc2cc(O)cc(O)c2)cc1		> 100	> 100	> 100	> 100	> 100	> 100	> 100	> 100	> 100								
Cc1sc2ccccc2[n+]1CCC(=O)O		> 100	> 100	> 100	> 100	> 100	> 100	> 100	> 100	> 100								
COc1cc2c(cc1OC)-c1c3c(cc4c1[C@@H](C2)N(C)CC4)OCO3	39.4	14.3	49.9				21.1	37.3		19.2								
NNC(=S)N1CCN(C(=S)NN)CC1	> 100	> 100	> 100	> 100		> 100	> 100	> 100	> 100									
Cn1nc(S(N)(=O)=O)s/c1=N/C(N)=S	> 100	> 100		> 100	> 100	> 100	> 100	> 100	> 100	> 100								
COc1cc(/C=C2\CCC(C)C3=C2NC(=S)NC3c2cc(OC)c(OC)c(OC)c2)cc(OC)c1OC (centres undefined)	> 100		> 100	> 100	> 100	> 100		> 100		> 100								
